Source: patent US9115165B2, “Tetracyclic anthraquinone antibiotic derivatives with high activity, process for preparing the same and use thereof” (Tianjin Hemay Bio-Tech Co., Ltd., priority 2008, dated 2015)
pEC50: −log10 of the molar value. ≈ marks a conversion by molar mass, not a printed value. Where two headings read alike, the source gives them in different places.

Legend:
Lovo cells = experiment: Cytotoxicity assay (MTS/MTT), growth inhibition of Lovo cells; assay type: cell-based, human; conditions: concentration of 1 μM
Procedure: LOVO: human colon cancer cell strains;
(§1) Cells were seeded into RPMI 1640 cell culture solution containing 10% fetal bovine serum (100 ku/L of penicillin and 100 ku/L of streptomycin were supplemented). The culture dish was placed in a cell incubator containing 5% CO2 at 37° C. The culture solution was changed once every 2-3 days. Cells were digested with 0.25% trypsin liquid, passaged and collected.
(§2) Cells during the logarithmic growth phase were formulated into a cell suspension having a desired concentration with RPMI 1640 cell culture solution containing 10% fetal bovine serum. The cell suspension was added onto 96 well cell culture plate at 3000-5000 per well (100 μl). After incubating for 24 hours, 100 μl of the test substances with different concentration was added per well. There were four parallel wells for each concentration in this plate. After incubating for 72 to 120 hours, the supernatant was discarded. To each well was added 100 μl of new formulated 0.5 mg/ml MTT serum-free culture solution. After incubating for 4 hours at 37° C., the supernatant was discarded. Formazane was dissolved with 200 μl DMSO. After slightly oscillating for 15 min, absorbance values (OD value) at the detective wavelength of 570 nm and the reference wavelength of 450 nm were determined with enzyme labeling instrument.
(§3) Data was represented by x±s. The inhibition rate=(OD value of the control group−OD value of the administration group)/OD value of the control group×100%. The maximum inhibition rate Imax and the half effective concentration (IC50) represent the anticancer effects. Figures were drawn with MicroCal Origin software. The inhibition curve of the test substance to the growth of tumor cells was fitted by Four Parameters Logistic Program of the software. The half effective concentration (IC50: μg/ml) for inhibiting the proliferation of tumor cells was calculated.
(§4) The exposure concentrations of the test substance were 0.001 μg/ml, 0.003 μg/ml, 0.009 μg/ml, 0.027 μg/ml, 0.082 μg/ml, 0.247 μg/ml, 0.741 μg/ml, 2.222 μg/ml, 6.667 μg/ml and 20 μg/ml. The exposure concentrations of doxorubicin (positive drug) were 1.25 μg/ml, 5 μg/ml, 20 μg/ml. In a 96-well plate, 3000-5000 cells were inoculated in each well and there were four parallel wells for each concentration. Table 1 lists the growth inhibition rate of the compounds against Lovo cells at concentration of 1 μM. Table 3 lists the inhibition rate of the compounds against the hyperplasia of MCF-7 human breast cancer cells at various concentrations.

[1] = folds of doxorubicin; cited from earlier work
transplanted tumor = transplanted tumor in mice; cited from earlier work
HCT-8 cell = experiment: Cytotoxicity assay (MTS/MTT), HCT-8 cells; assay type: cell-based, human; conditions: read-out: Half-Inhibitory Concentration of Cells Growth (EC50), HCT-8 cell
Procedure: HCT-8: human colon cancer cell strains;
as §1, §2, §3, §4

[2] = system: MCF-7 human breast cancer cells; experiment: Cytotoxicity assay (MTS/MTT), MCF-7 cells; assay type: cell-based; conditions: for pEC50: read-out: Half-Inhibitory Concentration of Cells Growth (EC50), MCF-7 cell
Procedure: MCF-7: human breast cancer cell strains;
as §1, §2, §3, §4

HEPG-2 = experiment: Cytotoxicity assay (MTS/MTT), HEPG-2 cells; assay type: cell-based, human; conditions: read-out: Half-Inhibitory Concentration of Cells Growth (EC50), HEPG-2
Procedure: HEPG-2: human liver cancer cell strains;
as §1, §2, §3, §4

A549 cell = experiment: Cytotoxicity assay (MTS/MTT), A549 cells; assay type: cell-based, human; conditions: read-out: Half-Inhibitory Concentration of Cells Growth (EC50), A549 cell
Procedure: A549: human lung cancer cell strains;
as §1, §2, §3, §4

Kunming white mice [3] = experiment: In vivo MTD test in mice; conditions: for Abnormality on the body surface / Change of body weight / Mortality rate: tail vein injection
Procedure: Experiment purpose: preliminary investigation on in vivo toxicity of the compound in Example 1 in mice
Experiment animal: Kunming white mice 20±2 g, purchased from the animal housing in Institute of Radiation Medicine, Chinese Academy of Medical Sciences. Animal license No.: SCXK(JIN)2005-0001.
Preparation of drug solution: After the drug was vortexed to dissolve with 0.5% (V/V) of DMSO, 5% (V/V) of RH40 (ethoxylated hydrogenated castor oil) was added. After mixing with vortex, the volume was determined with normal saline.
(1) Single administration: Nine healthy Kunming male white mice, of which the body weights are 20±2 g, were divided into three groups: 2 mice belong to the control group; 6 mice belong to 20 mg/kg group; 1 mouse belongs to 30 mg/kg group. 20 mg/kg and 30 mg/kg of the compound in Example 1 were administrated once via tail vein injection to the mice in the administration group. The same volume of a solvent was administrated as control to the mice in the control group. After administration, conditions such as action, reflex, locomotor activity and the like of the mice were observed within one hour. Subsequently, the body weights of the mice were recorded every day. Having observed for 14 days after drug withdrawal, the mice were anatomized to observe whether their main organs have an obvious abnormality.
(2) Multiple administrations: Twelve healthy Kunming white mice including six male mice and six female mice, of which the body weights are 20±2 g, were divided into two groups: […]. 10 mg/kg of the test drug was administrated once every three days via tail vein injection to the mice in the administration group. The same volume of a solvent was administrated as the control to the mice in the control group. The mice in each group were administrated five times. After each administration, conditions such as action, reflex, locomotor activity and the like of the mice were observed within one hour. The body weights of mice were recorded every day. Having been fed normally for one week after drug withdrawal, the mice were anatomized to observe whether their main organs have an obvious abnormality.

Kunming white mice [4] = conditions: reference value given in the conclusion; cited from earlier work
[5] = MCF-7, compound concentration 0.001 μg/ml
[6] = MCF-7, compound concentration 0.003 μg/ml
[7] = MCF-7, compound concentration 0.009 μg/ml
[8] = MCF-7, compound concentration 0.027 μg/ml
[9] = MCF-7, compound concentration 0.082 μg/ml
[10] = MCF-7, compound concentration 0.247 μg/ml
[11] = MCF-7, compound concentration 0.741 μg/ml
[12] = MCF-7, compound concentration 2.222 μg/ml
[13] = MCF-7, compound concentration 6.667 μg/ml
[14] = MCF-7, compound concentration 20 μg/ml
[15] = multiple administrations, 10 mg/kg once every three days, five times
[16] = single administration, 20 mg/kg and 30 mg/kg

3′-pyrrolyl-5-iminodaunomycin [Example 2]
Growth Inhibition Rate (%) (Lovo cells): 74.0%

COc1cccc2c1C(=O)c1c(O)c3c(c(O)c1C2=O)C[C@@](O)(C(=O)CO)C[C@@H]3O[C@H]1C[C@H](N2C=CCC2)[C@H](O)[C@H](C)O1 [AN-201, 2-pyrrolinyl-doxorubicin]
Activity in the cellular level relative to doxorubicin [1]: 300-1000 folds
Anticancer activity at the maximal tolerance dose (transplanted tumor): the anticancer activity was not observed at the maximal tolerance dose

COc1cccc2c1C(=O)c1c(O)c3c(c(O)c1C2=O)C[C@@](O)(C(=O)CO)C[C@@H]3O[C@H]1C[C@H](n2cccc2)[C@H](O)[C@H](C)O1 [Example 1, 3′-pyrrolyldoxorubicin]
Growth Inhibition Rate (%) (Lovo cells; 1 µM): 80.62%
pEC50 (HCT-8 cell; HCT-8 cell): 6.31
A570 nm-OD Values [2, 5]: 1.629 ± 0.257
Inhibition Rate (%) [2, 5]: 4.27%
A570 nm-OD Values [2, 6]: 1.744 ± 0.176
Inhibition Rate (%) [2, 6]: −2.49%
A570 nm-OD Values [2, 7]: 1.443 ± 0.079
Inhibition Rate (%) [2, 7]: 15.17%
A570 nm-OD Values [2, 8]: 1.238 ± 0.072
Inhibition Rate (%) [2, 8]: 27.22%
A570 nm-OD Values [2, 9]: 0.883 ± 0.041
Inhibition Rate (%) [2, 9]: 48.09%
A570 nm-OD Values [2, 10]: 0.703 ± 0.058
Inhibition Rate (%) [2, 10]: 58.68%
A570 nm-OD Values [2, 11]: 0.461 ± 0.026
Inhibition Rate (%) [2, 11]: 72.89%
A570 nm-OD Values [2, 12]: 0.302 ± 0.030
Inhibition Rate (%) [2, 12]: 82.26%
A570 nm-OD Values [2, 13]: 0.320 ± 0.030
Inhibition Rate (%) [2, 13]: 81.18%
A570 nm-OD Values [2, 14]: 0.289 ± 0.019
Inhibition Rate (%) [2, 14]: 83.03%
pEC50 ([2]; MCF-7 cell): 6.68
Imax (maximum inhibition rate) ([2]; MCF-7 human breast cancer cells): Imax = 83.03%
IC50 ([2]; MCF-7 human breast cancer cells, fitted inhibition curve): 0.06023 ± 0.01528 µg/mL (≈ 0.101 µM)
pEC50 (HEPG-2; HEPG-2): 6.09
pEC50 (A549 cell; A549 cell): 7.21
Maximal tolerance dose (MTD) relative to doxorubicin (Kunming white mice [3]; mice, compared with doxorubicin MTD 8-12 mg/kg): at least more than five folds higher than that of doxorubicin
Abnormality on the body surface (Kunming white mice [3]; [15]): no obvious abnormality on the body surface was observed
Change of body weight (Kunming white mice [3]; [15]): The body weight of each mouse increased slowly after administration
Mortality rate (Kunming white mice [3]; [15]): Death was not found
Abnormality on the body surface (Kunming white mice [3]; [16]): no obvious abnormality on the body surface was observed
Change of body weight (Kunming white mice [3]; [16]): The body weight of each mouse increased after administration
Mortality rate (Kunming white mice [3]; single administration, 20 mg/kg and 30 mg/kg, observed 14 days): Death was not found

3′-pyrrolyl-idarubicin [Example 3]
Growth Inhibition Rate (%) (Lovo cells): 88.9%

COc1cccc2c1C(=O)c1c(O)c3c(c(O)c1C2=O)CC(O)(C(=O)COC(=O)CCC(=O)O)CC3OC1CC(n2cccc2)C(O)C(C)O1 (stereo not shown) [Example 13, 3′-pyrrolyldoxorubicin-14-oxo-hydrogen succinate]
Growth Inhibition Rate (%) (Lovo cells): 76.05%
pEC50 (HCT-8 cell; HCT-8 cell): 5.73
pEC50 ([2]; MCF-7 cell): 6.03
pEC50 (HEPG-2; HEPG-2): 6.82
pEC50 (A549 cell; A549 cell): 5.63

COc1cccc2c1C(=O)c1c(O)c3c(c(O)c1C2=O)C[C@@](O)(C(=O)CO)C[C@@H]3O[C@H]1C[C@H](N)[C@H](O)[C@H](C)O1 [Doxorubicin, doxorubicin, reference compound]
inhibition at 1 µM (Lovo cells; Homo sapiens, read-out: Growth Inhibition Rate (%)): 50.4%
pEC50 (HCT-8 cell; Homo sapiens, HCT-8): 6.05
pEC50 ([2]; Homo sapiens, MCF7): 5.92
pEC50 (HEPG-2; Homo sapiens, HepG2): 5.70
pEC50 (A549 cell; Homo sapiens, A549): 6.18
Maximal tolerance dose (MTD) (Kunming white mice [4]): 8 to 12 mg/kg

COc1cccc2c1C(=O)c1c(O)c3c(c(O)c1C2=O)CC(O)(C(=O)CO)CC3OC1CC(N2C(=O)CCC2=O)C(O)C(C)O1 (stereo not shown) [Example 7, 3′-succinimidodoxorubicin]
Growth Inhibition Rate (%) (Lovo cells): 83.31%

COc1cccc2c1C(=O)c1c(O)c3c(c(O)c1C2=O)CC(O)(C(=O)COC(=O)C(C)N)CC3OC1CC(n2cccc2)C(O)C(C)O1.Cl (stereo not shown) [Example 38, 3′-pyrrolyldoxorubicin-14-oxo-alaninate hydrochloride]
Growth Inhibition Rate (%) (Lovo cells): 78.44%
pEC50 (HCT-8 cell; HCT-8 cell): 6.23
pEC50 ([2]; MCF-7 cell): 6.06
pEC50 (HEPG-2; HEPG-2): 5.97
pEC50 (A549 cell; A549 cell): 6.64

3′-pyrrolyl-4′-(pyran-2-yl)doxorubicin [Example 6]
Growth Inhibition Rate (%) (Lovo cells): 90.94%

3′-pyrrolyl-esorubicin [Example 4]
Growth Inhibition Rate (%) (Lovo cells): 40.71%

COc1cccc2c1C(=O)c1c(O)c3c(c(O)c1C2=O)C[C@@](O)(C(=O)CO)C[C@@H]3O[C@H]1C[C@H](n2cccc2)[C@H](O)[C@H](C)O1 [Example 5, 3′-pyrrolyldoxorubicin]
Growth Inhibition Rate (%) (Lovo cells): 67.25%
